Measured values: publication PMC8595653, “Activation of specific bitter taste receptors by olive oil phenolics and secoiridoids” (Scientific Reports, 2021)
“Also recorded” adds a separate entry of the source. Blank lines part the entries; values can stand above or below the molecule they belong to.

Columns and labels:
TAS2R8 = biological target: T1, TAS2R8 (Homo sapiens, UniProt Q9NYW2); assay: Calcium mobilization functional assay, TAS2R8 co-expressed with Gα16-gust44 and GCaMP in HEK293E cells; type: cell-based; details: for potency and efficacy on TAS2R8 in words: concentration-response experiments, maximal concentration 10 mM for oleuropein
T1 construct: first 45 amino acids of rat somatostatin type 3 receptor (SSTR3) export tag (N); expressed in transfected cells; host or cells: HEK293E
T1 sequence (Q9NYW2 1-309): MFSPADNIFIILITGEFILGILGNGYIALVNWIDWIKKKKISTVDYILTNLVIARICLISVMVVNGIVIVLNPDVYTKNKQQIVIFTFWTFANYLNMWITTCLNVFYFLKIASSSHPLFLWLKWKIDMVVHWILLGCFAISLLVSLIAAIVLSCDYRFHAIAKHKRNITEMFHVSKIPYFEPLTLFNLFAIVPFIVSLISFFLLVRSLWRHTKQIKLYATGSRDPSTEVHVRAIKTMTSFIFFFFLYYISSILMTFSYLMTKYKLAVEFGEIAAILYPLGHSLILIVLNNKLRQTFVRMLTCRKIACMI
Experimental: (§1) All constructs were confirmed by DNA sequencing.
(§2) Data from single dose experiments were collected as duplicates. […] Data represent mean ± SD.
(§3) To characterize the bitterness of olive oil phenolic compounds, we performed calcium mobilization experiments. The 25 bitter taste receptors, G protein chimera (Gα16-gus44), and the GCaMP calcium sensor[68] were transiently expressed in HEK293E cells. Twelve olive oil phenolic compounds (Fig. 1) were tested for bitter taster receptor activation (Fig. 3). […] Ligstroside aglycon, and Oleuropein aglycon activated TAS2R1, TAS2R8 and TAS2R14 receptors. To validate the single dose scanning results, we performed concentration–response experiments for all the compounds toward receptors TAS2R1, TAS2R8, and TAS2R14 that produced the most significant responses (Fig. 4).

TAS2R20 = biological target: T2, TAS2R20 (Homo sapiens, UniProt P59543); assay: Calcium mobilization functional assay, TAS2R20 (RTP3 and RTP4 co-expressed); type: cell-based; details: 10 mM, versus empty pcDNA vector
T2 construct: first 45 amino acids of rat somatostatin type 3 receptor (SSTR3) export tag (N); expressed in transfected cells; host or cells: HEK293E
Excerpt: as §1, §2

25 human TAS2Rs = assay: Single dose scanning of phenolic compounds on the 25 bitter taste receptors (calcium mobilization, HEK293E); type: cell-based; details: single dose 300 µM, 25 TAS2Rs, N = 2
Experimental: as §1, §2, §3
Figure 3 Phenolic compound bitter taste activity tests on hTAS2Rs. Relative fluorescence signals caused by phenolic compound activation of the receptors and the empty vector as a negative control. The concentration of the compounds used was [300 µM], except for Ligstroside aglycon and Oleuropein aglycon [200 µM], oleuropein that was [3 mM]. The asterisks indicate significant differences tested by one-way ANOVA (***p < 0.0001) (N = 2). Data represent mean ± SD.

TAS2R30 = biological target: T3, TAS2R30 (Homo sapiens, UniProt P59541); assay: Calcium mobilization functional assay, TAS2R30; type: cell-based; details: 300 µM, versus empty pcDNA vector
T3 construct: first 45 amino acids of rat somatostatin type 3 receptor (SSTR3) export tag (N); expressed in transfected cells; host or cells: HEK293E
Excerpt: as §1, §2

TAS2R39 = biological target: T4, TAS2R39 (Homo sapiens, UniProt P59534); assay: Calcium mobilization functional assay, TAS2R39; type: cell-based; details: 10 mM, versus empty pcDNA vector
T4 construct: first 45 amino acids of rat somatostatin type 3 receptor (SSTR3) export tag (N); expressed in transfected cells; host or cells: HEK293E
Excerpt: as §1, §2

TAS2R46 = TAS2R46 (Homo sapiens, UniProt P59540); details: 300 µM, versus empty pcDNA vector
Experimental: 25 human TAS2R genes were subcloned into the pcDNA 3.1 vector, as previously descripted in the literature[44],[53]. The first 45 amino acids of the rat somatostatin type 3 receptor, which serves as a cell-surface-targeting signal, were added to the N-termini of the TAS2Rs to target them more efficiently to the cell surface. Herpes simplex virus (HSV) glycoprotein D epitopes were added to the carboxy termini of the receptors for immunocytochemistry. All constructs were confirmed by DNA sequencing.
HEK293E cells were cultured at 37 °C in DMEM (Thermo Fisher Scientific), supplemented with 10% fetal bovine serum (FBS) and 1% Penicillin Streptomycin. The cells were seeded onto 96-well plates (Clear Bottom Black Polystyrene Poly-D-Lysine Coated Microplates, Corning life sciences) at a density of 50,000 (in 100 μl DMEM) per well, and cultured at 37 °C for overnight. On the second day following seeding, the medium was changed to OPTI-MEM supplemented with 5% FBS (filtered) before co-transfection using Polyethylenimine (PEI) (1.6 μg/well) with plasmid DNAs encoding TAS2Rs (0.1 μg/well), Gα16-gust44 (0.06 μg/well) and the GCaMP calcium sensor (0.035 μg/well). After 24 h, the medium was changed to fresh OPTI-MEM supplemented with 5% FBS (filtered) and 0.1% Plasmocin (InvivoGen). […]

TAS2R43 = biological target: T5, TAS2R43 (Homo sapiens, UniProt P59537); assay: Calcium mobilization functional assay, TAS2R43; type: cell-based; details: 30 µM, versus empty pcDNA vector
T5 construct: first 45 amino acids of rat somatostatin type 3 receptor (SSTR3) export tag (N); expressed in transfected cells; host or cells: HEK293E
Excerpt: as §1, §2

TAS2R31 = biological target: T6, TAS2R31 (Homo sapiens, UniProt P59538); assay: Calcium mobilization functional assay, TAS2R31; type: cell-based; details: 30 µM, versus empty pcDNA vector
T6 construct: first 45 amino acids of rat somatostatin type 3 receptor (SSTR3) export tag (N); expressed in transfected cells; host or cells: HEK293E
Excerpt: as §1, §2

TAS2R50 = biological target: T7, TAS2R50 (Homo sapiens, UniProt P59544); assay: Calcium mobilization functional assay, TAS2R50; type: cell-based; details: 1 mM, versus empty pcDNA vector
T7 construct: first 45 amino acids of rat somatostatin type 3 receptor (SSTR3) export tag (N); expressed in transfected cells; host or cells: HEK293E
Excerpt: as §1, §2

TAS2R1 = biological target: T8, TAS2R1 (Homo sapiens, UniProt Q9NYW7); assay: Calcium mobilization functional assay, TAS2R1 co-expressed with Gα16-gust44 and GCaMP in HEK293E cells; type: cell-based
T8 construct: first 45 amino acids of rat somatostatin type 3 receptor (SSTR3) export tag (N); expressed in transfected cells; host or cells: HEK293E
T8 sequence (Q9NYW7 1-299): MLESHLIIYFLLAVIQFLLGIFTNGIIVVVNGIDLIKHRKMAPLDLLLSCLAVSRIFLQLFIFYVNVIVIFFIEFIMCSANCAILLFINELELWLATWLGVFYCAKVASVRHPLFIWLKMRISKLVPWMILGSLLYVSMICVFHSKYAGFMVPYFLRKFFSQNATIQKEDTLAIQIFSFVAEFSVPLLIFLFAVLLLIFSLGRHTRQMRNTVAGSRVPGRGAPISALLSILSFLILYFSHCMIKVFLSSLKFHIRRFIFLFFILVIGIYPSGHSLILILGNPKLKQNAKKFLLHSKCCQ
Experimental: as §1, §2, §3

TAS2R14 = biological target: T9, TAS2R14 (Homo sapiens, UniProt Q9NYV8); assay: Calcium mobilization functional assay, TAS2R14 co-expressed with Gα16-gust44 and GCaMP in HEK293E cells; type: cell-based
T9 construct: first 45 amino acids of rat somatostatin type 3 receptor (SSTR3) export tag (N); expressed in transfected cells; host or cells: HEK293E
T9 sequence (Q9NYV8 1-317): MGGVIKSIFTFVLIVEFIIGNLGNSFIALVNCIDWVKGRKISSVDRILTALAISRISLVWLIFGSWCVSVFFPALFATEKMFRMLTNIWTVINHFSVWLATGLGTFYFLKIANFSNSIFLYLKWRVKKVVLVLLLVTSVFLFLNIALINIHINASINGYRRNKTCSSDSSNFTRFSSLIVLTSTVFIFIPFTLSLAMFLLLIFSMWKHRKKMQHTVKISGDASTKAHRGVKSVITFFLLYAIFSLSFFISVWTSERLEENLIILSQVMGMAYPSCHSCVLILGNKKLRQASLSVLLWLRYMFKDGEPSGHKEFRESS
Experimental: as §1, §2, §3

[1] = HEK293E, normalized to the highest response of TAS2R8 to oleuropein aglycon (100%), N = 3

T6 sequence (P59538 whole entry): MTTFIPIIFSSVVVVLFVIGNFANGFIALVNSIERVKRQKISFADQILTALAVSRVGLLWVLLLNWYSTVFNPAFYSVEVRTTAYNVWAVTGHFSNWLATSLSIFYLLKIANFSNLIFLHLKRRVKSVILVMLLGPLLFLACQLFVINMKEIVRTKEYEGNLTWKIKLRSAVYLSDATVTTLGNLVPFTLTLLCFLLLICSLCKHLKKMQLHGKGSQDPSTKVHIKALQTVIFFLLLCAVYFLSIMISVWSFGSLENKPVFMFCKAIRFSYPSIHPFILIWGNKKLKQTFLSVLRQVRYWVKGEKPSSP
T3 sequence (P59541 whole entry): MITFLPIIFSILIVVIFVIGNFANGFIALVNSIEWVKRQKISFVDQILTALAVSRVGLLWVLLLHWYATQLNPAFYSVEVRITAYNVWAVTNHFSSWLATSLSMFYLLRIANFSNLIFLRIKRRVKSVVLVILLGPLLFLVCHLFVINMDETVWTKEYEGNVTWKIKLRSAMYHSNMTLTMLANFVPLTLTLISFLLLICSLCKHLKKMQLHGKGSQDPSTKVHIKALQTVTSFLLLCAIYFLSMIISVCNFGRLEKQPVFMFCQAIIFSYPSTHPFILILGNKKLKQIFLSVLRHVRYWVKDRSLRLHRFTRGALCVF
Sequence of TAS2R46 (P59540 whole entry): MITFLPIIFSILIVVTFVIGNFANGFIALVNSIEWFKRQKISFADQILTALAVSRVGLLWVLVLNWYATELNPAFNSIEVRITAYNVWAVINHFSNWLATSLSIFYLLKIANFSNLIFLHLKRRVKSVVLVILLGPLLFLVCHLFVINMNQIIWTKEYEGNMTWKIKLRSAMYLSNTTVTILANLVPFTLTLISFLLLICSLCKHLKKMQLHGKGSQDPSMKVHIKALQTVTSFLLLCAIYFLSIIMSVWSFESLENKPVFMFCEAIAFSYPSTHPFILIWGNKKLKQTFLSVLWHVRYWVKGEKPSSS
T4 sequence (P59534 whole entry): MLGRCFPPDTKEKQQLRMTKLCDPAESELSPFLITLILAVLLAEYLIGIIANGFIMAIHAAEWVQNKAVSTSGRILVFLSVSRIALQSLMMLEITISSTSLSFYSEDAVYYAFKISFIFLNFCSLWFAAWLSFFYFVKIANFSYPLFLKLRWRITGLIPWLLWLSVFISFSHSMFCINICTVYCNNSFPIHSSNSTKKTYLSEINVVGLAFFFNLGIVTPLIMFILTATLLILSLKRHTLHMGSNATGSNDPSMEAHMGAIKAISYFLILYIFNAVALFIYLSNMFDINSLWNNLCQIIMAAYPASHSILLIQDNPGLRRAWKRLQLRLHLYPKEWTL
T5 sequence (P59537 whole entry): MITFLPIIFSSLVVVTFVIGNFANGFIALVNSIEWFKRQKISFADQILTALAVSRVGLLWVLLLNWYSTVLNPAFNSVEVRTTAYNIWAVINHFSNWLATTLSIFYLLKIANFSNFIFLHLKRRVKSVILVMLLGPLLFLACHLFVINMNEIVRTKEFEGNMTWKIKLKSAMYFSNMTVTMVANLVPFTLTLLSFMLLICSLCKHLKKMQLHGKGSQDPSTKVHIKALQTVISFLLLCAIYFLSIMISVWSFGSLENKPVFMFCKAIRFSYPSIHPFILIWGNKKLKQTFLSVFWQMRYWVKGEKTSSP
T2 sequence (P59543 whole entry): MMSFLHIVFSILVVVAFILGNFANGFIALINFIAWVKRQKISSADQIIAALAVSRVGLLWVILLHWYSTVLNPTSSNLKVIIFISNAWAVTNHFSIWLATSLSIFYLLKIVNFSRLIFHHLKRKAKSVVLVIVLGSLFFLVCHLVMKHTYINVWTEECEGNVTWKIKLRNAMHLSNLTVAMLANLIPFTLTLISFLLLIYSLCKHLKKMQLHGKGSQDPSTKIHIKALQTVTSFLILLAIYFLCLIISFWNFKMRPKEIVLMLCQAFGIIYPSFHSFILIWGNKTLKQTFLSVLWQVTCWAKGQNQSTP
T7 sequence (P59544 whole entry): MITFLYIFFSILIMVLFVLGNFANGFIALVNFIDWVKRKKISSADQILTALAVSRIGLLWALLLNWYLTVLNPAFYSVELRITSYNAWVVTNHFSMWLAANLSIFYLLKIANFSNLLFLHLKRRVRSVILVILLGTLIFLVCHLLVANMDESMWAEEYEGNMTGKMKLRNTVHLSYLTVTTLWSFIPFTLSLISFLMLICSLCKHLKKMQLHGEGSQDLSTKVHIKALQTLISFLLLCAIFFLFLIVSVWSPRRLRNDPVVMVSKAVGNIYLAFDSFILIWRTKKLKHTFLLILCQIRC

Structure (SMILES): C/C=C(/C=O)C(CC(=O)OCCc1ccc(O)c(O)c1)/C(=C/O)C(=O)OC (stereo not shown) [Oleomissional, oleomissional]
potency and efficacy on TAS2R8 in words (TAS2R8): activated weakly and less potently | potency and efficacy on TAS2R8 in words (TAS2R8; listed as oleomissinal): activated TAS2R8 with lower potency | activation of TAS2R8 over background (TAS2R8; single dose 300 µM): activate | activation of TAS2R8 over background (TAS2R8; single dose 300 µM, listed as oleomissional): activated significantly

Structure (SMILES): OCCc1ccc(O)cc1 [Tyrosol, tyrosol]
activation of any TAS2R (25 human TAS2Rs): did not activate any TAS2Rs; also recorded: failed to activate any bitter receptor; also recorded: failed to activate any TAS2Rs

Structure (SMILES): O=C1C[C@@H]2OCC=C3CN4CC[C@]56c7ccccc7N1[C@H]5[C@H]2[C@H]3C[C@H]46 [strychnine]
activation of TAS2R46 (TAS2R46): activated

Structure (SMILES): COc1cccc2c1cc([N+](=O)[O-])c1c(C(=O)O)cc3c(c12)OCO3 [aristolochic acid]
activation of TAS2R43 (TAS2R43): activated | activation of TAS2R31 (TAS2R31): activated

More lines, main results first:

activation of TAS2R20 (TAS2R20): activated
Structure (SMILES): O=C(O)c1cc(=O)c2c(OCC(O)COc3cccc4oc(C(=O)O)cc(=O)c34)cccc2o1 [cromolyn]

potency lower compared to the aglycons (TAS2R8; TAS2R8): 50 fold | activation of TAS2R8 over background (TAS2R8; single dose 3 mM, listed as oleuropein): activated significantly
Structure (SMILES): C/C=C1/[C@H](O[C@@H]2O[C@H](CO)[C@@H](O)[C@H](O)[C@H]2O)OC=C(C(=O)OC)[C@H]1CC(=O)OCCc1ccc(O)c(O)c1 [Oleuropein, oleuropein]
potency and efficacy on TAS2R8 in words (TAS2R8): high efficacy on TAS2R8 but very low potency and did not reach saturation | activation of TAS2R8 over background (TAS2R8; single dose 3 mM): activate; also recorded: activated TAS2R8 only

activation of TAS2R30 (TAS2R30): activated
Structure (SMILES): CC[N+](CC)(CC(=O)Nc1c(C)cccc1C)Cc1ccccc1 [denatonium, denatonium benzoate]

activation of TAS2R39 (TAS2R39): activated
Structure (SMILES): CNC(=C[N+](=O)[O-])NCCSCc1ccc(CN(C)C)o1 [ranitidine]

activation of TAS2R50 (TAS2R50): activated
Structure (SMILES): C=C1CC[C@@H]2[C@](C)(CO)[C@H](O)CC[C@@]2(C)[C@@H]1C/C=C1/C(=O)OC[C@H]1O [andrographolide]

Emax (TAS2R1; [1]): 67.6% | EC50 (TAS2R1; dose-response, N = 3, HEK293E): 142 µM | activation of TAS2R1 (TAS2R1; single dose 200 µM): activated | Emax (TAS2R8; [1]): 100% | EC50 (TAS2R8; dose-response, N = 3, HEK293E): 57.3 µM | times more potent than oleuropein (TAS2R8; potency of bitter receptor activation relative to oleuropein (1)): ~50 times | activation of TAS2R8 (TAS2R8; single dose 200 µM): activated | potency and efficacy on TAS2R14 in words (TAS2R14; concentration-response experiments, compared with ligstroside aglycon): even less potent and efficacious | activation of TAS2R14 (TAS2R14; single dose 200 µM): activated
Structure (SMILES): COC(=O)C1=COC(C)C(C=O)C1CC(=O)OCCc1ccc(O)c(O)c1 (single isomer, unassigned; isomer b) [Oleuropein aglycon (5b), oleuropein aglycon closed-type (isomer B)]
